Source: ChEMBL document CHEMBL1201862, “PubChem BioAssay data set” (2004)
Activity calls are given as the source filed them.

Columns and labels:
[1] = target: Beta-2 adrenergic receptor (Homo sapiens, UniProt P07550); assay: ADRB2 activation measured by internalization – cell-based, FAP fluorogen, flow cytometry, cherry pick 1, dose response (AID 588763); format: functional
[2] = target: ATP-dependent molecular chaperone HSP82 (Candida albicans (strain WO-1) (Yeast), UniProt C4YTQ8); assay: steroid-induced GRE reporter decrease in yeast – S. cerevisiae, luminescence, Hsp90 inhibitor project, dose response (AID 2400); format: functional, cell-based;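 further: beta-galactosidase luminescence from glucocorticoid response element reporter as proxy for Hsp90 function; inhibitor potency where signal loss means Hsp90 inhibition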
ATP-dependent molecular chaperone HSP82, sequence (C4YTQ8 whole entry): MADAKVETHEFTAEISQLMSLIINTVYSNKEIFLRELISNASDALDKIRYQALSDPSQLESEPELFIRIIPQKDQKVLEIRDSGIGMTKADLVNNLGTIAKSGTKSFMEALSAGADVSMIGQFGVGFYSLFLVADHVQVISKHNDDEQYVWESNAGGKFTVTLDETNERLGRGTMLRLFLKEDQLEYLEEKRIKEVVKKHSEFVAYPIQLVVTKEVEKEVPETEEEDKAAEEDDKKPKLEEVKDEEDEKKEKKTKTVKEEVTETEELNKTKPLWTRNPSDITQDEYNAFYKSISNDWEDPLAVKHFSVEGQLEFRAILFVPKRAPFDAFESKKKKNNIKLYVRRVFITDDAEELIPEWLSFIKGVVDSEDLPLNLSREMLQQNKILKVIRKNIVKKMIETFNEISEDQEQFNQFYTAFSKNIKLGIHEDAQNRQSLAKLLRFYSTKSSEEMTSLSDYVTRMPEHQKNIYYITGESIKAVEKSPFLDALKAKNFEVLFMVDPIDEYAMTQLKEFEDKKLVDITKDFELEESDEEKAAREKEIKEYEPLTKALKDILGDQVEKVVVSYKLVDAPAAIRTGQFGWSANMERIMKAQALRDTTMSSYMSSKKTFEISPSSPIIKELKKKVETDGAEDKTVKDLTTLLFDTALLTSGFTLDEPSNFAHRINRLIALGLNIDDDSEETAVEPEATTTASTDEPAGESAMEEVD

[3] = NIH-3T3 fibroblast cytotoxicity, dose response, cytotoxicity control, cell-based, fluorescence, Alamar Blue, secondary assay (AID 2327); format: functional;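 further: NIH-3T3 mouse fibroblasts cultured with fluconazole at 8 µg/mL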
[4] = fluconazole-exposed Candida albicans growth modulators – fluorescence, retest, confirmation (AID 2467); format: functional, cell-based
[5] = microbe, parasite or virus in culture; format: functional; settings: Mycobacterium tuberculosis
[6] = target: Serine/threonine-protein phosphatase (Candida dubliniensis (strain CD36 / CBS 7987 / NCPF 3949 / NRRLY-17841) (Yeast), UniProt B9W6M3); assay: blockers of CaCl2-induced CDRE-lacZ signaling – S. cerevisiae, luminescence, secondary, dose response (AID 2388); format: functional, cell-based;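 further: yeast reporter cells carrying a calcineurin-responsive lacZ construct stimulated with calcium chloride; luminescent beta-galactosidase reporter signal in whole cells rather than isolated phosphatase activity; potency for inhibition where a drop in reporter signal means calcineurin blockade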
Serine/threonine-protein phosphatase, sequence (B9W6M3 whole entry): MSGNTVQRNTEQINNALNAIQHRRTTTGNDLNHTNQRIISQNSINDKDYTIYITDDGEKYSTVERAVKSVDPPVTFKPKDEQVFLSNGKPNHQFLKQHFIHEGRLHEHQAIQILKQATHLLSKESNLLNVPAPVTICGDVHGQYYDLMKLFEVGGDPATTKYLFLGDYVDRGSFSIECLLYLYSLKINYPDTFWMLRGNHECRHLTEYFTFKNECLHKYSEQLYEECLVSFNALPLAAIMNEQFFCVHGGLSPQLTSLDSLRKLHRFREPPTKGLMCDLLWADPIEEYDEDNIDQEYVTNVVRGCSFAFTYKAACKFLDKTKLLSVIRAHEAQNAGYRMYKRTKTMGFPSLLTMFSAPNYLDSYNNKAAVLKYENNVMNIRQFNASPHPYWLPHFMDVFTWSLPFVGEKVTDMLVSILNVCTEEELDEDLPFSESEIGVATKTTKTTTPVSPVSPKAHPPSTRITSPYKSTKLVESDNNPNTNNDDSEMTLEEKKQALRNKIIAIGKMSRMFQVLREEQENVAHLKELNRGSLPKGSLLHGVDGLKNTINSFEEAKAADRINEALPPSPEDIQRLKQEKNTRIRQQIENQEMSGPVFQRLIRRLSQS

[7] = restored growth of temperature-sensitive Burl-1 yeast – whole organism, S. cerevisiae, Burl-1 ts mutant, luminescence, counter-screen for SUMOylation pathway inhibitor project, dose response (AID 463199); format: functional
CAAX prenyl protease 2 [8] = target: CAAX prenyl protease 2 (Homo sapiens, UniProt Q9Y256); assay: inhibition of Ras-converting CAAX protease Rce1 – biochemical, yeast membranes, quenched-peptide fluorescence, cherry-pick, dose response (AID 588849)
CAAX prenyl protease 2 (Homo sapiens, UniProt Q9Y256), sequence (Q9Y256 whole entry): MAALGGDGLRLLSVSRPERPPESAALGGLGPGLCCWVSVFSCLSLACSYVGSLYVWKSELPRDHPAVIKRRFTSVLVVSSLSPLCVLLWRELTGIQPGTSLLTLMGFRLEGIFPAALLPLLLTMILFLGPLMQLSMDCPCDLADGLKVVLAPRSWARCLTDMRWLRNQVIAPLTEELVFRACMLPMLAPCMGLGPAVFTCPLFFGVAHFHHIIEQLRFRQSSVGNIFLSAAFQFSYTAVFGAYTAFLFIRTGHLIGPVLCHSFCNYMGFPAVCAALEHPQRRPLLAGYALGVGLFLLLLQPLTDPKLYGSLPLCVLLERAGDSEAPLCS

CAAX prenyl protease 2 [9] = target: CAAX prenyl protease 2 (Saccharomyces cerevisiae S288c, UniProt Q03530); format: biochemical
CAAX prenyl protease 2 (Saccharomyces cerevisiae S288c, UniProt Q03530), sequence (Q03530 whole entry): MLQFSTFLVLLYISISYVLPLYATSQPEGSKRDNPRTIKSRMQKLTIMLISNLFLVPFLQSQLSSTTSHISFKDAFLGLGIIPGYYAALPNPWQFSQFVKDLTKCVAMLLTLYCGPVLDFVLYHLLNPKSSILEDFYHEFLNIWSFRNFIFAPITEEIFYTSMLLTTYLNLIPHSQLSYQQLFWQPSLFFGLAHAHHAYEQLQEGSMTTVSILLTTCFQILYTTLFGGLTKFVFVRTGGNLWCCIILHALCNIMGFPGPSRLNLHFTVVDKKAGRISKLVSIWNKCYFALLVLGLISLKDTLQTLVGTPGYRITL

[10] = target: T1, Microphthalmia-associated transcription factor (Homo sapiens, UniProt O75030); assay: reducers of TRPM1 reporter luminescence, concentration series – cell-based, SK-MEL-5, cherry-picked, set 3, MITF inhibitor project, dose response (AID 493073); format: functional;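 further: SK-MEL-5 melanoma cells with luciferase driven by the MITF target TRPM1 promoter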
T1 sequence (O75030 whole entry): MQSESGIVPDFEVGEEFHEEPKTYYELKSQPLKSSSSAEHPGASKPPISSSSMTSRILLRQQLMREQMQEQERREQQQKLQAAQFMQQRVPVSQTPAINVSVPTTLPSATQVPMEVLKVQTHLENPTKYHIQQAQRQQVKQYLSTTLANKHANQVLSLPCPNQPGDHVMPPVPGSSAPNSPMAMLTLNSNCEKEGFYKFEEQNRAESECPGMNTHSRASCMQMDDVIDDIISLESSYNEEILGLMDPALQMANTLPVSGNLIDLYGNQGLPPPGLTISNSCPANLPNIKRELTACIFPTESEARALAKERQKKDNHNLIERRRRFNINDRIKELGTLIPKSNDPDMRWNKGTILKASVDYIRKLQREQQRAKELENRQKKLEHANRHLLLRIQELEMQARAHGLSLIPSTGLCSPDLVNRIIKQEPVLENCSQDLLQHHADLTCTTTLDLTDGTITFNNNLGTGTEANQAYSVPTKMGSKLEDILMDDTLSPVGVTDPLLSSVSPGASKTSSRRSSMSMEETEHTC

Vero = assay: cells; format: functional; settings: Chlorocebus sabaeus
INS1 = assay: INS-1E survival protection against cytokine death – cell-based, luminescence, retest, dose response (AID 449756); format: functional; settings: Rattus norvegicus;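 further: cell death triggered by IL-1 beta plus TNF-alpha plus IFN-gamma mixture; protective hits raise ATP signal compared with cytokine alone wells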
A-375 = assay: proliferation inhibition in MITF-low A375 cells – cell-based, cherry-pick samples, set 2, counter-screen for MITF modulator project, dose response (AID 540335); format: functional; settings: Homo sapiens
[11] = target: G-protein coupled receptor 55 (Homo sapiens, UniProt Q9Y2T6); assay: selective activators of receptor GPR55 – imaging, U2OS cells, beta-arrestin-GFP redistribution, primary screen (AID 1961); format: functional
G-protein coupled receptor 55, sequence (Q9Y2T6 whole entry, the tested form may be a part): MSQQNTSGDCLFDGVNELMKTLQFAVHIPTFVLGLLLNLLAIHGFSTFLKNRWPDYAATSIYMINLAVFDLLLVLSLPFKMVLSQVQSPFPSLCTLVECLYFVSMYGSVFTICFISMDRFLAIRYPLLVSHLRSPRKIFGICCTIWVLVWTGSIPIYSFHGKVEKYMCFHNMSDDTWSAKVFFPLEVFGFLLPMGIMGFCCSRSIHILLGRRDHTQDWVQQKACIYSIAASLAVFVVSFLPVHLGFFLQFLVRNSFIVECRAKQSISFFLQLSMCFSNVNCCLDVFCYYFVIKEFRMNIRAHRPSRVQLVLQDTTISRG

[12] = viability loss in CEM21 cells – cell-based, CellTiter-Glo luminescence, cherry-picked, cytotoxicity control for viral fusion inhibitor project, dose response (AID 652042); format: functional;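 further: potency for signal decrease meaning cytotoxicity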
[13] = blockers of HIV-1 envelope-mediated cell-cell fusion – cherry-pick, dose response (AID 652057); format: functional, cell-based
[14] = blockers of HIV-1 ZM109 envelope-driven cell-cell fusion – HeLa effector, CEM target cells, luciferase, cherry-pick, dose response (AID 652058); format: functional, cell-based;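 further: luciferase signal from HIV-1 Env mediated cell-cell fusion of effector and target cells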
[15] = HIV-1 AD8 envelope cell-cell fusion blockers – cherry-pick, dose response (AID 652062); format: functional, cell-based;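 further: luciferase signal from cell-cell fusion driven by HIV-1 clade B AD8 Env; potency is for inhibitors of fusion seen as a drop in luminescence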
[16] = target: Eukaryotic translation initiation factor 4E (Mus musculus, UniProt P63073); assay: blockers of eIF4G binding by eIF4E – biochemical, TR-FRET, dose response (AID 855); format: functional;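 further: potency for disrupting eIF4E binding to eIF4GI seen as loss of FRET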
Eukaryotic translation initiation factor 4E, sequence (P63073 whole entry): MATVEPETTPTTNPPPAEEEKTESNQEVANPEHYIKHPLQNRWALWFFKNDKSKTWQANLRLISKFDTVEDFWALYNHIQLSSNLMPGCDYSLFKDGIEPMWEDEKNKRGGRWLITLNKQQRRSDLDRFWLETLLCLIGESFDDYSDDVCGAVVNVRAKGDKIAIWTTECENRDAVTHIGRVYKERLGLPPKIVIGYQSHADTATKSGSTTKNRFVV

Beta-2 adrenergic receptor, sequence (P07550 whole entry): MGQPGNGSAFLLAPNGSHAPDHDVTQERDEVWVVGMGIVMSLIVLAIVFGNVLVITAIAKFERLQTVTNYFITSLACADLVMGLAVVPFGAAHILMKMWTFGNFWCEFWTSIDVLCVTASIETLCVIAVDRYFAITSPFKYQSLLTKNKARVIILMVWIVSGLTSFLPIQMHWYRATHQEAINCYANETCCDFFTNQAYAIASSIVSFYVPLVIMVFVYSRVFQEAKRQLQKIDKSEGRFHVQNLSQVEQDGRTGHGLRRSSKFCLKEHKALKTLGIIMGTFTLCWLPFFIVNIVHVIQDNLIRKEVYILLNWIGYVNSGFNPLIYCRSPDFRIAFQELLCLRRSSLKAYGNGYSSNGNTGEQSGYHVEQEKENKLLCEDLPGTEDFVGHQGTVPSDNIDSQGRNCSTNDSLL

**Q.** With CCn1c(COc2ccc(Cl)cc2)nnc1SCc1ccc(C#N)cc1 as the compound, how does the EC50 [1] read?
**A.** 2.11 µM (active)

**Q.** With CCc1ccc(C2c3[nH]c4ccccc4c3CCN2C(=O)c2ccc(=O)n(C)n2)cc1 (centres undefined) as the compound, how does the EC50 [2] read?
**A.** > 160 µM (inactive)

**Q.** What about the EC50 [3] of the same compound?
**A.** > 160 µM (inconclusive)

**Q.** And the EC50 [4]?
**A.** 0.223 µM (active)

**Q.** And the CC50 [5]?
**A.** > 40 µM (active)

**Q.** And the EC50 [6]?
**A.** > 180 µM (inactive)

**Q.** Which AC50 [7] does the source give for O=C(CSc1nnc(CNC(=O)c2ccco2)o1)Nc1nc2ccccc2s1 here?
**A.** 54 µM (active)

**Q.** For O=C(OC[C@@H]1CCCN2CCCC[C@H]12)c1cc2ccccc2oc1=O, which AC50 (CAAX prenyl protease 2 [8]) is on record?
**A.** 55.9 µM (active)

**Q.** And the AC50 (CAAX prenyl protease 2 [9])?
**A.** 16.3 µM (active)

**Q.** For Cc1ccc(NC2c3ncccc3C(=O)N2C2CCCCC2)cc1C (centres undefined), which AC50 [7] is on record?
**A.** 161 µM (active)

**Q.** What does the source list for CC1CCC(C(C)C)C(OC(=O)Cn2c(-c3ccc(Cl)cc3)[n+](C)c3ccccc32)C1 (centres undefined)?
**A.** AC50 [10]: 6.29 µM (active); CC50 (Vero): > 25 µM (active); AC50 (INS1): 3.42 µM (active); AC50 (A-375): 26.3 µM (active); EC50 [11]: > 32 µM (inactive); AC50 [12]: 9.28 µM (active); AC50 [13]: 15.7 µM (active); AC50 [14]: 11.7 µM (active); AC50 [15]: 10.8 µM (active)

**Q.** Which EC50 [3] does the source give for Cc1ccc(OCc2cc(C(=O)NCc3cnn(-c4cccc(F)c4)c3)no2)cn1 here?
**A.** > 160 µM (inactive)

**Q.** What about the EC50 [4] of the same compound?
**A.** 0.964 µM (active)

**Q.** And the EC50 [1]?
**A.** 0.195 µM (active)

**Q.** Which AC50 (CAAX prenyl protease 2 [8]) does the source give for O=c1c(-c2ccccc2)coc2c(CN3CCCC3)c(O)ccc12 here?
**A.** 16.2 µM (active)

**Q.** What about the IC50 [16] of the same compound?
**A.** > 64 µM (inactive)
